Patent US20240401094A1, “SOLID FORM OF (-)-AMBROX FORMED BY A BIOCONVERSION OF HOMOFARNESOL IN THE PRESENCE OF A BIOCATALYST” (Givaudan SA, priority 2016, published 2024)

Test: Sensory analysis (odour / GC-detection threshold and odour character)
Details: for odour description: result in words
From the text: Purpose: to Carry Out a Sensory Analysis of (−)-Ambrox and the Compounds (II), (III) and (IV) Formed in the Crude Material and in the Crystallised Material.

CC1(C)CCC[C@]2(C)[C@H]3CCO[C@]3(C)CC[C@@H]12 [(−)-Ambrox]
Odour Threshold (sensory analysis): 0.2 ng/L

CC1(C)CCC[C@@]2(C)[C@H]1CC[C@]1(C)OCC[C@@H]21 [Compound (IV)]
GC-detection threshold (sensory analysis): 5 to 10 ng
odour description (sensory analysis): weak, IsoE, woody
odour description (sensory analysis, listed as IV): weaker odour

CC1(C)CCC[C@@]2(C)[C@H]1CC[C@@]1(C)OCC[C@@H]21 [Compound (III), epi-Ambrox]
GC-threshold relative to (−)-Ambrox (times higher) (compared with (−)-Ambrox): about 10 ×
odor weaker than (−)-Ambrox (compared with (−)-Ambrox): about 10 fold
GC-detection threshold (sensory analysis): circa 2 ng
odour description (sensory analysis, listed as Compound III): essentially odorless
odour description (sensory analysis, listed as III): weaker odour

C/C1=C/CCO[C@@]2(C)CCCC(C)(C)[C@@H]2CC1 [Compound (II)]
detection threshold (as stated in the description): > 500 ng/L
GC-detection threshold (sensory analysis): > 500 ng
odour description (sensory analysis): “odorless”
odour description (sensory analysis, listed as II): weaker odour
odour description (sensory analysis, listed as compound of formula (II)): practically odourless
